The test concerns the target T1, H. sapiens SLC2A9 variant 2 (GLUT9B) (Homo sapiens, UniProt Q9NRM0).
T1 sequence (Q9NRM0 1-511 isoform Q9NRM0-2): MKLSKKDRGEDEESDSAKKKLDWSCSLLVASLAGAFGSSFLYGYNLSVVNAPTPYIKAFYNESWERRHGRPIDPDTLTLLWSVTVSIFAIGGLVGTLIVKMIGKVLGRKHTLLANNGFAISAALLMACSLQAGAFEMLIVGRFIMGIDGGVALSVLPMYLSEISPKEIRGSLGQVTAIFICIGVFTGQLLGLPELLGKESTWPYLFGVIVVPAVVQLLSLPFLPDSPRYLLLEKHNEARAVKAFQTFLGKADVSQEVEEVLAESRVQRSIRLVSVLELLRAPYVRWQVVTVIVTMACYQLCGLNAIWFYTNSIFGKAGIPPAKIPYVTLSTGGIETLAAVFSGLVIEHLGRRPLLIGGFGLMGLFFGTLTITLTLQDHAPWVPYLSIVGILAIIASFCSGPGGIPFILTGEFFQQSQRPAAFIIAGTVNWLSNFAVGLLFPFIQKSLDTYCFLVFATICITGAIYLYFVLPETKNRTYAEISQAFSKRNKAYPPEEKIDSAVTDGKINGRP
The experiment in a line: GLUT9 functional assay: uric acid uptake in HEK293T cells, allantoin formation by MS/MS as proxy of GLUT9B inhibition. It is filed as cell-based. The note with it: HEK293T cells stably expressing GLUT9B and transiently A. oryzae uricase, uric acid 0.3 mM, 37° C. As for the experimental part: Uric acid stocks (9 mM, Millipore-Sigma, U0881) were generated in 125 mM choline chloride (Millipore-Sigma, C7017) and the concentration was determined at 293 nm using a molar extinction coefficient of 9600 M- ^1 cm- ^1) after collecting the absorbance spectra from 220-350 nm. Allantoin stocks (12 mM Toronto Research Chemicals, A540500) were generated in LCMS grade water (Thermo Scientific, 51140). The concentration of allantoin was determined by qNMR (Michigan State University). HEK293T cells were purchased from ATCC (HEK 293T/17 SF). Hanks buffered saline salts (HBSS) was purchased from Millipore-Sigma (H6648-1L).
SLC2A9 variant 2 was assayed in sodium gluconate buffer was composed of 125 mM sodium gluconate (TCI Chemicals, G0041-500G), 4.8 mM potassium gluconate (TCI Chemicals, G0040-500G), 1.2 mM calcium gluconate (TCI Chemicals, G0037-500G), 1.2 mM potassium phosphate (pH 7.4, Millipore-Sigma, 17835), 1.2 mM MgSO4, Millipore-Sigma, M2773-500G), 25 mM HEPES pH 7.3, (Millipore-Sigma, 54457). The final pH of the buffer was 7.4. Urate 1 was assayed in the same buffer save the pH was made to be 5.5 using 25 mM MES (pH 5.5) buffer vs 25 mM HEPES (pH 7.3) buffer.
Human untagged clone for (untagged)-human solute carrier family 2 member 9 (SLC2A9), transcript variant (SLC2A9/NM_001001290, FIG. 1 and FIG. 2; SEQ ID NOS: 3 and 4) was purchased from Origene (Cat #SC319239). SLC2A9 variant 2 (GLUT9B) gene was amplified by PCR using the following primer to allow for the introduction of EcoR1 and Not1 sites using the primers below.
HEK293T clonal stable cell lines containing the SLC2A9 variant 2 construct in the bicistronic pIRESpuro vector were generated using Viafect™ (Promega E4981) as per the manufactures instructions and puromycin selection (5 μg×mL^−1).
Uric acid uptake was measured in HEK293T cells stably expressing H. sapiens SLC2A9 variant 2 (GLUT9B) and transiently expressing A. oryzae uricase. Thus, decreased allantoin formation was used as a proxy of GLUT9B inhibition. Briefly, clonal cells were plated (53,000 cells/cm^2) in DMEM with 10% FBS. Twenty-four hours later, A. oryzae uricase was transfected, and assay conducted 3 days later across a 12-point curve in buffer (in mM: 125 sodium gluconate, 4.8 potassium gluconate, 1.2 calcium gluconate, 1.2 potassium phosphate, 1.2 magnesium sulfate4, 25 HEPES; pH 7.4) with uric acid at the GLUT9B Km (0.3 mM) for 15 min or for 60 min, at 37° C. Following wash (Hanks, 37° C.), plates were sealed, incubated (5 min, RT) and cells freeze-thawed prior to lysing in water and shaking (30 min RT). Lysates were filtered through PVDF and subjected to MSMS using a 10 mM ammonium acetate-based mobile phase on a porous graphitic carbon column. Allantoin was detected in positive ion mode. Desired analyte concentrations were quantitated by integrating the area under the curve followed by a log-logistic regression model and data compared to a standard curve prepared in a matching HEK293T biological matrix.
Mass spectrometry measurement of allantoin was completed using an Agilent RapidFire 300 coupled to a Sciex API 4000 mass spectrometer. The stationary phase was an Agilent cartridge D (hypercarb). Mobile phase A was 10 mM ammonium acetate. Mobile phase B was 5 mM ammonium acetate, 25% acetonitrile, 25% acetone. Allantoin was detected in positive ion mode with the following compound ID settings: Q1 159, Q3 115.8, DP 57, CE 12.5 Dwell 100 ms. The source settings were CAD 10, CUR 20, GS1 50, GS250 IS/NC: 5000, TEM 650, EP 10, CXP 10 where Q1 and Q3 resolution were set to low.
Data was quantitated using Area under the curve integration was performed with the RapidFire™ Integrator (Agilent Technologies) for the desired analytes. Quantitation was completed using in a using a log-logistic regression model using allantoin in matching HEK293T biological matrix.

The mark [1] stands for this setting: 15 minute assay, read-out: 15 min IC50.
[2] abbreviates: 60 minute assay, read-out: 60 min IC50.

The values below come from US20250179032A1, “HETEROCYCLIC INHIBITORS OF GLUT9 FOR TREATMENT OF DISEASE” (HORIZON THERAPEUTICS IRELAND DAC, priority 2022, published 2025).

Usually IC50 stands for the concentration that inhibits the measured activity by half.

Read-outs that look alike come from different tables or passages of the source.

With `CCCCc1cnc(-c2ccc3c(c2)C(=O)CO3)c(N2CCC(C(=O)O)CC2)n1` [Compound 47, 1-(6-butyl-3-(3-oxo-2,3-dihydrobenzofuran-5-yl)pyrazin-2-yl)piperidine-4-carboxylic acid], under setting [1], the IC50 was in the range of 500 to 2000 nM. As for `COCCCc1cnc(-c2cc(F)c3occc3c2)c(N2CCC(C(=O)O)C(F)(F)C2)n1` (stereo not shown) [Compound 187, 3,3-difluoro-1-(3-(7-fluorobenzofuran-5-yl)-6-(3-methoxypropyl)pyrazin-2-yl)piperidine-4-carboxylic acid], under setting [2], the IC50 is under 500 nM. On to `N#CC1(C(=O)O)CCN(c2nc(CCC(F)(F)F)cnc2-c2cc(F)c3occc3c2)CC1` [Compound 93, 4-cyano-1-(3-(7-fluorobenzofuran-5-yl)-6-(3,3,3-trifluoropropyl)pyrazin-2-yl)piperidine-4-carboxylic acid], for which, under setting [1], the IC50 is 500 to 2000 nM. For `CCCCc1cnc(-c2ccc(S(C)(=O)=O)cc2)c(N2CCC(C(=O)O)CC2)n1` [Compound 7, 1-(6-Butyl-3-(4-(Methylsulfonyl)Phenyl)Pyrazin-2-yl)Piperidine-4-carboxylic acid], the IC50 under setting [1] was in the range of 500 to 2000 nM. Regarding `COCCCc1cnc(-c2cc(F)c3occc3c2)c(N2CCCC(C(=O)O)CC2)n1` (stereo not shown) [Compound 243, 1-(3-(7-fluorobenzofuran-5-yl)-6-(3-methoxypropyl)pyrazin-2-yl)azepane-4-carboxylic acid], the IC50 under setting [2] was under 500 nM. The same measure, in the same setting: the figure for `COCCCc1cnc(-c2cnc3c(cnn3C)c2)c(N2CCC(C(=O)O)CC2)n1` [Compound 217, 1-(6-(3-methoxypropyl)-3-(1-methyl-1H-pyrazolo[3,4-b]pyridin-5-yl)pyrazin-2-yl)piperidine-4-carboxylic acid] is over 2000 nM.

As to `O=C(O)C1CCN(c2nc(CCC(F)(F)C(F)(F)F)cnc2-c2ccc(OCC3CC3)cc2)CC1` [Compound 154, 1-(3-(4-(cyclopropylmethoxy)phenyl)-6-(3,3,4,4,4-pentafluorobutyl)pyrazin-2-yl)piperidine-4-carboxylic acid], under setting [1], the IC50 fell in the range of 500 to 2000 nM. For `O=C(O)C1CCN(c2nc(CCCCC(F)(F)F)cnc2-c2ccc3c(c2)OCO3)CC1` [Compound 132, 1-(3-(benzo[d][1,3]dioxol-5-yl)-6-(5,5,5-trifluoropentyl)pyrazin-2-yl)piperidine-4-carboxylic acid], under setting [1], the IC50 was under 500 nM. On the same count and under the same terms, the figure for `O=C(O)C1CCN(c2nc(CCC(F)(F)F)cnc2-c2ccc(OCCO)cc2)CC1` [Compound 99, 1-(3-(4-(2-hydroxyethoxy)phenyl)-6-(3,3,3-trifluoropropyl)pyrazin-2-yl)piperidine-4-carboxylic acid] is over 2000 nM; for `CCCCc1cnc(-c2ccc(OCCOC)cc2)c(N2CCC(C(=O)O)CC2)n1` [Compound 13, 1-(6-Butyl-3-(4-(2-Methoxyethoxy)Phenyl)Pyrazin-2-yl)Piperidine-4-carboxylic acid] it is under 500 nM. As to `COCCCc1cnc(-c2ccc3nn(C)cc3c2)c(N2CCC(C(=O)O)CC2)n1` [Compound 198, 1-(6-(3-methoxypropyl)-3-(2-methyl-2H-indazol-5-yl)pyrazin-2-yl)piperidine-4-carboxylic acid], the IC50 under setting [2] was over 2000 nM. As to `O=S1NC(C2CCN(c3nc(COCC(F)(F)F)cnc3-c3cc(F)c4occc4c3)CC2)=NO1` (stereo not shown) [Compound 83, 4-(1-(3-(7-fluorobenzofuran-5-yl)-6-((2,2,2-trifluoroethoxy)methyl)pyrazin-2-yl)piperidin-4-yl)-3H-1,2,3,5-oxathiadiazole 2-oxide], the IC50 under setting [1] fell in the range of 500 to 2000 nM.

In the case of `COCCCc1cnc(-c2ccc3nccn3c2)c(N2CCC(C(=O)O)CC2)n1` [Compound 205, 1-(3-(imidazo[1,2-a]pyridin-6-yl)-6-(3-methoxypropyl)pyrazin-2-yl)piperidine-4-carboxylic acid], the IC50 under setting [2] was over 2000 nM.

Consider `O=C(O)C1CCN(c2nc(CCC(F)(F)F)cnc2-c2ccc(OC(F)F)cc2)CC1` [Compound 163, 1-(3-(4-(difluoromethoxy)phenyl)-6-(3,3,3-trifluoropropyl)pyrazin-2-yl)piperidine-4-carboxylic acid], for which the IC50 under setting [1] is 500 to 2000 nM. Turning to `CCCCc1cnc(-c2cc(F)c(OCCOC)c(F)c2)c(N2CCC(C(=O)O)CC2)n1` [Compound 38, 1-(6-butyl-3-(3,5-difluoro-4-(2-methoxyethoxy)phenyl)pyrazin-2-yl)piperidine-4-carboxylic acid], the IC50 under setting [1] was in the range of 500 to 2000 nM.

Regarding `O=c1[nH]c(C2CCN(c3nc(CCC(F)(F)F)cnc3-c3cc(F)c4occc4c3)CC2)no1` [Compound 146, 3-(1-(3-(7-fluorobenzofuran-5-yl)-6-(3,3,3-trifluoropropyl)pyrazin-2-yl)piperidin-4-yl)-1,2,4-oxadiazol-5(4H)-one], under setting [1], the half-inhibitory concentration (IC50) was under 500 nM. Regarding `COCCCc1cnc(-c2ccc3occc3c2)c(N2CCC(C(=O)O)CC2C)n1` (racemic) [Compound 180, 1-(3-(benzofuran-5-yl)-6-(3-Methoxypropyl)Pyrazin-2-yl)-2-methylpiperidine-4-carboxylic acid], the IC50 under setting [2] is under 500 nM.

For `COc1cc(-c2ncc(CCC(F)(F)F)nc2N2CCC(C(=O)O)CC2)ccc1Cl` [Compound 62, 1-(3-(4-chloro-3-methoxyphenyl)-6-(3,3,3-trifluoropropyl)pyrazin-2-yl)piperidine-4-carboxylic acid], the IC50 under setting [1] was over 2000 nM. Still for that read-out and setting: the figure for `COCCOc1ccc(-c2ncc(CCCC(F)(F)F)nc2N2CCC(C(=O)O)CC2)cc1` [Compound 34, 1-(3-(4-(2-methoxyethoxy)phenyl)-6-(4,4,4-trifluorobutyl)pyrazin-2-yl)piperidine-4-carboxylic acid] is 500 to 2000 nM. As for `O=C(O)C1CCN(c2nc(CCCOCC(F)(F)F)cnc2-c2ccc3c(c2)OCO3)CC1` [Compound 178, 1-(3-(benzo[d][1,3]dioxol-5-yl)-6-(3-(2,2,2-trifluoroethoxy)propyl)pyrazin-2-yl)piperidine-4-carboxylic acid], the IC50 under setting [2] was 500 to 2000 nM. For `CCCCc1cnc(-c2ccc(OC)cc2)c(-c2c[nH]c(C(=O)O)c2)c1` [Compound 21, 4-(5-butyl-2-(4-methoxyphenyl)pyridin-3-yl)-1H-pyrrole-2-carboxylic acid], the IC50 under setting [1] was over 2000 nM. The same measure, in the same setting: then `CCCCc1cnc(-c2ccc(OC)cc2)c(N2CCC(C(=O)O)C2)n1` (stereo not shown) [Compound 12, 1-(6-Butyl-3-(4-Methoxyphenyl)Pyrazin-2-yl)Pyrrolidine-3-Carboxylic acid], with over 2000 nM.
